From PMC12584752, “Covalent fragment screening to inhibit the E3 ligase activity of bacterial NEL enzymes SspH1 and SspH2” (RSC Chemical Biology, 2025)

How the values were obtained:
[1] = biological target: T1, SspH1 (C492) (Salmonella typhimurium, UniProt D0ZVG2); assay: IA-DTB competitive chemoproteomics in spiked HEK293T lysate; assay type: binding; settings: HEK293T lysate spiked with recombinant protein, four hours at RT
T1 construct: Recombinant IpaH9.8 (21–545) and SspH1 (161–700) were incubated at 0.5 μM; His-tag (N, cleaved yes); made in house; host or cells: E. coli BL21
T1 sequence (D0ZVG2 161-700): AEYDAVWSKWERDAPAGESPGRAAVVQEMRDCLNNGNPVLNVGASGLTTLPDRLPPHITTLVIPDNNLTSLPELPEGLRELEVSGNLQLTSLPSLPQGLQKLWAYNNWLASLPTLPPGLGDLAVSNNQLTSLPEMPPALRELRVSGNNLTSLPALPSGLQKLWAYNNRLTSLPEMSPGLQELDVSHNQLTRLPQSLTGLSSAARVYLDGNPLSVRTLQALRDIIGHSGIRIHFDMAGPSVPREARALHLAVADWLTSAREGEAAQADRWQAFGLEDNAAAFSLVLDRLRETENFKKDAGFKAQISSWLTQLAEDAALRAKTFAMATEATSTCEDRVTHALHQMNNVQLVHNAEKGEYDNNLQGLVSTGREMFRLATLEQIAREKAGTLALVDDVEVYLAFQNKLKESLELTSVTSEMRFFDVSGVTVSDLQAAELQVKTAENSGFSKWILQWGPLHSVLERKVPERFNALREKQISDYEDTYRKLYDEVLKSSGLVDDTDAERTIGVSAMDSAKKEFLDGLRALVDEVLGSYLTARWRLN
Method: (§1) HEK293T lysate supplemented with recombinant SspH1 (161–700) and SspH2 (166–783) was treated with a dilution series […] of either compound 6 or 7 for four hours at RT. Following compound treatments, we used an iodoacetamide-desthiobiotin (IA-DTB) competitive chemoproteomics workflow to assess cysteine engagement.[52] Comparison of DMSO treated lysate with compound treated lysate enabled identification of peptides where IA-DTB labelling of cysteines was blocked due to fragment engagement (Fig. S5). […] Competition of the SspH2 C580 peptide occurred at lower concentrations compared to the SspH1 C492 peptide, which corroborated our previous kinetics experiments that both compounds label SspH2 faster than SspH1 (Fig. S4).
(§2) Fig. 5 Characterisation of protein interactions by compounds 6 and 7. (A) SspH1 and SspH2 catalytic cysteine labelling with compound 6 (100–3.125 μM, 4 hours) in HEK293T lysate spiked with recombinant SspH1 and SspH2. Data are presented as mean ± SEM, n = 4. The curves were fitted with GraphPad Prism 10 using four parameter nonlinear regression with baseline correction to DMSO-treated samples. (B) SspH1 and SspH2 catalytic cysteine labelling with compound 7 (100–3.125 μM, 4 hours) in HEK293T lysate spiked with recombinant SspH1 and SspH2. Data are presented as mean ± SEM, n = 4. The curves were fitted with GraphPad Prism 10 using four parameter nonlinear regression with baseline correction to DMSO-treated samples. (C) Volcano plot of IA-DTB competition in SspH1 expressing HEK293T cells treated with compound 6 (50 μM, 4 hours). (D) Volcano plot of IA-DTB competition in SspH2 expressing HEK293T cells treated with compound 6 (50 μM, 4 hours). Data is shown as compared to DMSO treated samples, with competed peptides in the upper left-hand quadrant. Competed catalytic cysteine-containing peptides of HECT E3s (yellow), UCH DUBs (blue) and OTU DUBs (purple) are indicated. All proteomics experiments were performed with technical quadruplicates.
(§3) A pellet of 50 × 10^6 HEK293T cells was resuspended in 5 mL lysis buffer (50 mM HEPES pH 8.0, 150 mM NaCl, 1% IGEPAL, 0.1% SDS, 0.5% Na-deoxycholate, supplemented with protease inhibitor cocktail (Sigma-Aldrich, P8340)). The lysate was sonicated and centrifuged (10 min, 17 000 × g) and the soluble fraction isolated. Protein concentrations were measured using a Rapid BCA Gold Protein Assay Kit (Thermo Scientific, A53226) and diluted to 0.75 mg mL^−1 with lysis buffer. The lysate was then spiked with 0.2 μM of each recombinant SspH1 (aa 161–700) and SspH2 (aa 166–783). For each condition, four wells were treated and processed separately, representing four technical replicates. 2 μL of 100× stocks of compounds 6 and 7 in DMSO (10–0.156 mM, and DMSO only control), and 200 μL lysate was added to a 96-well plate. […]

[2] = biological target: T2, SspH2 (C580) (Salmonella typhimurium, UniProt D0ZPH9); assay: as above; assay type: binding; settings: HEK293T lysate spiked with recombinant protein, four hours at RT
T2 construct: Recombinant SspH1 (aa 161–700) and SspH2 (aa 166–783) were both characterised; His-tag (N, cleaved yes); made in house; host or cells: E. coli BL21
T2 sequence (D0ZPH9 166-783): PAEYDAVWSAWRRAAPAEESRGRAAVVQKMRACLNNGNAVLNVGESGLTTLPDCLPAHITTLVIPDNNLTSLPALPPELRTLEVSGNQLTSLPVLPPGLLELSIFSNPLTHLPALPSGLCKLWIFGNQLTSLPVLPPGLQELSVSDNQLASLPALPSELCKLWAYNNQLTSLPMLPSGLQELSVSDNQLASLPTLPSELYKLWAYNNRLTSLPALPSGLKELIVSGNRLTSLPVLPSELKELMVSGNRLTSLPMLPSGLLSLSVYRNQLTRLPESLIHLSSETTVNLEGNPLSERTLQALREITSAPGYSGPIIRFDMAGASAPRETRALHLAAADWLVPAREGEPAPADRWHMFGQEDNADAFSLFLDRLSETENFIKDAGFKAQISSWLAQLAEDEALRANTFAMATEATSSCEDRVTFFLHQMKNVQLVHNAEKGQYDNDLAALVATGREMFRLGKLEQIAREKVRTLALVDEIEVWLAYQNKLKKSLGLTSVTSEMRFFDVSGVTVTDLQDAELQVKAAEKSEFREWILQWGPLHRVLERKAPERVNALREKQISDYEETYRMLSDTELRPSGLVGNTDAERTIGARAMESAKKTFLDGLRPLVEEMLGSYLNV
Method: as §1, §2, §3

Row | SMILES | competition of IA-DTB labelling of the C492 peptide for SspH1 [1] | competition of IA-DTB labelling of the C580 peptide for SspH2 [2]
1 | Cl.O=C(CCl)N1CCC(n2c(-c3ccc(C(F)(F)F)cc3)nc3ccccc32)CC1 [compound 7] | concentration-dependent competition | concentration-dependent competition
2 | Cc1cc(-c2nc3ccccc3n2C2CCN(C(=O)CCl)CC2)cc(C)c1O.Cl [compound 6] | concentration-dependent competition | concentration-dependent competition
